Patent US20120107916A1, “METHODS AND COMPOSITIONS FOR AFFECTING THE DIFFERENTIATION OF CLOSTRIDIA IN CULTURE” (priority 2009, published 2012)

Key:
[1] = tested on: C. beijerinckii NCIMB 8052; assay: Growth (optical density at 600 nm) of sequential batch cultures; format: cell-based, Clostridium beijerinckii
Procedure: (§1) Bacterial strains and media. Clostridium acetobutylicum ATCC 824 and C. beijerinckii NCIMB 8052 are available from several commercial microbial culture collections including the American Type Culture Collection (ATCC), Manassas, Va., USA. The strains were grown at 30° C. or 37° C. in YE broth, which contained, per liter: 5.0 g yeast extract, 2.5 g casamino acids, 1.0 g L-asparagine, 0.5 g cysteine.HCl, 56 mg K2HPO4, 56 mg KH2PO4, 82 mg anhydrous MgSO4, 8 mg FeSO4.H2O, 6 mg MnSO4.H2O and 10 g glucose. Alternatively, strains were grown in YEPG broth, which was identical to YE expect that K2HPO4 and KH2PO4 were increased to 145 mg/L each and glucose was increased to 60 g/L. The pH of the media was adjusted to 7.2 using 45% KOH prior to sterilization by autoclaving. Media were solidified by addition of 1.5% Bacteriological Agar, Actimedia Manufacturers, Inc., Lansing, Mich. All cultures were grown in anaerobic conditions using the AnaeroPack System, Mitsubishi Gas Chemical Co., Inc., Japan, and GasPak EZ Gas Generating Sachets, Becton, Dickinson and Co., Sparks, Md. Spore stocks were kept at room temperature on agar-solidified media and were activated by suspending spores in 0.5 mL to 1.0 mL of medium followed by heating for 10 min at 80° C. before inoculation into growth medium.
Growth and pH measurements. Growth of bacterial cultures was measured spectrophotometrically using optical density at 600 nm and pH of cell-free culture supernatants was measured using a hand-held Shindengen ISFET pH Meter KS501, Shendengen Electric Manufacturing Co., Ltd., Bannockburn, Ill.
Effect of peptide SEQ ID NO:145 addition on sequential batch cultures of C. beijerinckii NCIMB 8052 grown at 30° C. Spores of C. beijerinckii NCIMB 8052 were germinated and grown overnight at 30° C. under anaerobic conditions in YEPG medium. After about 24 h of growth, […] of the culture was transferred (transfer 1) to each of four flasks that contained 10 mL of YEPG and either had no treatment or were treated with peptide SEQ ID NO:145 (see Table 8) at 1 nM, 10 nM or 50 nM. Thereafter, 75 μL of each culture was transferred, at the same time, every 24-48 h to 10 mL of fresh YEPG that contained the same peptide treatment or no treatment. Each culture was stopped after 96 hours of incubation and optical density, pH and ceric ion reactive chemicals were measured. Sequential batch culturing was continued through 6 transfers at which point all cultures appeared to be growing to the same extent (Table 12 and FIG. 4).
Effect of peptide SEQ ID NO:145 addition on sequential batch cultures of C. beijerinckii NCIMB 8052 grown at 37° C. Spores of C. beijerinckii NCIMB 8052 were germinated and grown overnight at 37° C. under anaerobic conditions in YEPG medium that either contained 50 nM of peptide SEQ ID NO:145 or no added peptide. After about 24 h of growth, 10 μL of the untreated culture was transferred (transfer 1) to each of two flasks that contained 10 mL of YEPG with either no treatment or with 50 nM peptide SEQ ID NO:145. At the same time, 10 μL of the culture that was germinated in the presence of peptide SEQ ID NO:145 was also transferred to 10 mL of YEPG that contained 50 nM of peptide SEQ ID NO:145. Thereafter, 10 μL of each culture was transferred, at the same time, every 24-48 h to 10 mL of fresh YEPG that contained the same peptide treatment or no treatment. Each culture was stopped after 72 hours of incubation and optical density, pH and ceric ion reactive chemicals were measured. Addition of peptide SEQ ID NO:145 appeared to have no effect on endpoint measurements of the growth of C. beijerinckii NCIMB 8052 after germination or during sequential transfers of cultures at 37° C. (Table 18 and FIG. 10). All three cultures stopped growing at the second transfer.

[2] = tested on: C. beijerinckii NCIMB 8052; assay: Ceric ion reactive compounds (total alcohols) in culture broths, colorimetric ceric ammonium nitrate assay; format: cell-based, Clostridium beijerinckii; conditions: 50 nM peptide; for Optical density of ceric ion reactive compounds measured at 500 nm: transfer 3, 96 h, 30° C.
Procedure: as §1
Analysis of solvents. Total alcohols in cell-free culture supernatants were measured using a modification of a colorimetric method based on ceric ammonium nitrate (Reid and Truelove, 1952). […] The sample was mixed by inverting the cuvette six times then exactly two minutes later the optical density at 500 nm wavelength was measured. The concentration of total alcohols was determined by comparison with a standard curve prepared by using butanol diluted in distilled water.
Effect of peptide SEQ ID NO:145 addition on sequential batch cultures of C. beijerinckii NCIMB 8052 grown at 30° C. […] Each culture was stopped after 96 hours of incubation and optical density, pH and ceric ion reactive chemicals were measured. […]

Substance: IRLIT (Derived from Clostridium beijerinckii SEQ ID NO: 141) [Peptide SEQ ID NO:145, pentapeptide from C. beijerinckii NCIMB 8052 locus Cbei_1065; chemically synthesized putative autoinducing peptide]
- Optical density at 600 nm of culture broths ([1]; 1 nM peptide, transfer 1, 96 h, 30° C.): 2.086
- Optical density at 600 nm of culture broths ([1]; 1 nM peptide, transfer 2, 96 h, 30° C.): 2.086
- Optical density at 600 nm of culture broths ([1]; 1 nM peptide, transfer 3, 96 h, 30° C.): 2.106
- Optical density at 600 nm of culture broths ([1]; 1 nM peptide, transfer 4, 96 h, 30° C.): 2.115
- Optical density at 600 nm of culture broths ([1]; 1 nM peptide, transfer 5, 96 h, 30° C.): 2.090
- Optical density at 600 nm of culture broths ([1]; 1 nM peptide, transfer 6, 96 h, 30° C.): 2.075
- Optical density at 600 nm of culture broths ([1]; 10 nM peptide, transfer 1, 96 h, 30° C.): 2.080
- Optical density at 600 nm of culture broths ([1]; 10 nM peptide, transfer 2, 96 h, 30° C.): 2.093
- Optical density at 600 nm of culture broths ([1]; 10 nM peptide, transfer 3, 96 h, 30° C.): 2.078
- Optical density at 600 nm of culture broths ([1]; 10 nM peptide, transfer 4, 96 h, 30° C.): 2.108
- Optical density at 600 nm of culture broths ([1]; 10 nM peptide, transfer 5, 96 h, 30° C.): 2.069
- Optical density at 600 nm of culture broths ([1]; 10 nM peptide, transfer 6, 96 h, 30° C.): 2.062
- Optical density at 600 nm of culture broths ([1]; 50 nM peptide added after germination, transfer 1, 72 h, 37° C.): 1.313
- Optical density at 600 nm of culture broths ([1]; 50 nM peptide added after germination, transfer 2, 72 h, 37° C.): 0.011
- Effect on endpoint measurements of growth after germination or during sequential transfers ([1]; 50 nM peptide, 37° C.): no effect
- Effect on germination and growth (visual observations through the course of growth) ([1]; 50 nM peptide, 37° C.): repressive effect
- Optical density at 600 nm of culture broths ([1]; 50 nM peptide, transfer 1, 96 h, 30° C.): 2.102
- Optical density at 600 nm of culture broths ([1]; 50 nM peptide, transfer 2, 96 h, 30° C.): 2.023
- Optical density at 600 nm of culture broths ([1]; 50 nM peptide, transfer 3, 96 h, 30° C.): 1.936
- Optical density at 600 nm of culture broths ([1]; 50 nM peptide, transfer 4, 96 h, 30° C.): 2.061
- Optical density at 600 nm of culture broths ([1]; 50 nM peptide, transfer 5, 96 h, 30° C.): 2.120
- Optical density at 600 nm of culture broths ([1]; 50 nM peptide, transfer 6, 96 h, 30° C.): 2.046
- Growth of treated cultures during incubation (data not shown) ([1]; 1-50 nM peptide, 96 h, 30° C.): slow the growth of the treated cultures during 96 h of incubation in a dose dependent manner
- Optical density at 600 nm of culture broths ([1]; 50-50: germinated and transferred in 50 nM peptide, transfer 1, 72 h, 37° C.): 1.420
- Optical density at 600 nm of culture broths ([1]; 50-50: germinated and transferred in 50 nM peptide, transfer 2, 72 h, 37° C.): 0.011
- Optical density at 600 nm of culture broths ([1]; 50-50: spores germinated in 50 nM peptide, transfer 0 (germinated culture), 72 h, 37° C.): 1.158
- Number of times that cultures could be transferred in comparison with an untreated culture ([1]; through six culture transfers, 30° C.): did not affect
- Effect on endpoint measurements of ceric ion reactive compounds ([2]; 37° C.): no apparent effect
- Optical density of ceric ion reactive compounds measured at 500 nm ([2]; listed as SEQ ID NO: 145): −0.002
- Optical density of ceric ion reactive compounds measured at 500 nm ([2]; listed as SEQ ID NO:145): no ceric ion reactive compounds
